Measured values taken from US20240101572A1, “DIHYDROOXADIAZINONE COMPOUND AND PHARMACEUTICAL USE THEREOF” (Japan Tobacco Inc., priority 2022, published 2024).
Like-named read-outs stand apart in the source and are kept apart here.

Legend:
full-length human PLD2 = full-length human PLD2 (Homo sapiens (Human), UniProt O14939); assay: Evaluation of human PLD2 enzyme inhibitory activity (Amplex Red / choline oxidase fluorescence); assay type: biochemical
Procedure, shortened: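 Released choline was read by Amplex Red fluorescence coupled to choline oxidase and HRP after a 60 min room-temperature reaction. Substrate was diheptanoyl phosphatidylcholine, added as a 6 mmol/L solution, and enzyme was FLAG-tagged full-length human PLD2 from Expi293F, added as a 6 nmol/L solution. Buffer was 50 mM HEPES pH 7.5 with 5% final DMSO.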

full-length human PLD1 = full-length human PLD1 (Homo sapiens (Human), UniProt Q13393); assay: Evaluation of human PLD1 enzyme inhibitory activity (Amplex Red / choline oxidase fluorescence); assay type: biochemical
Chain of full-length human PLD1 (Q13393 other isoform, or with tags, fused parts or gaps): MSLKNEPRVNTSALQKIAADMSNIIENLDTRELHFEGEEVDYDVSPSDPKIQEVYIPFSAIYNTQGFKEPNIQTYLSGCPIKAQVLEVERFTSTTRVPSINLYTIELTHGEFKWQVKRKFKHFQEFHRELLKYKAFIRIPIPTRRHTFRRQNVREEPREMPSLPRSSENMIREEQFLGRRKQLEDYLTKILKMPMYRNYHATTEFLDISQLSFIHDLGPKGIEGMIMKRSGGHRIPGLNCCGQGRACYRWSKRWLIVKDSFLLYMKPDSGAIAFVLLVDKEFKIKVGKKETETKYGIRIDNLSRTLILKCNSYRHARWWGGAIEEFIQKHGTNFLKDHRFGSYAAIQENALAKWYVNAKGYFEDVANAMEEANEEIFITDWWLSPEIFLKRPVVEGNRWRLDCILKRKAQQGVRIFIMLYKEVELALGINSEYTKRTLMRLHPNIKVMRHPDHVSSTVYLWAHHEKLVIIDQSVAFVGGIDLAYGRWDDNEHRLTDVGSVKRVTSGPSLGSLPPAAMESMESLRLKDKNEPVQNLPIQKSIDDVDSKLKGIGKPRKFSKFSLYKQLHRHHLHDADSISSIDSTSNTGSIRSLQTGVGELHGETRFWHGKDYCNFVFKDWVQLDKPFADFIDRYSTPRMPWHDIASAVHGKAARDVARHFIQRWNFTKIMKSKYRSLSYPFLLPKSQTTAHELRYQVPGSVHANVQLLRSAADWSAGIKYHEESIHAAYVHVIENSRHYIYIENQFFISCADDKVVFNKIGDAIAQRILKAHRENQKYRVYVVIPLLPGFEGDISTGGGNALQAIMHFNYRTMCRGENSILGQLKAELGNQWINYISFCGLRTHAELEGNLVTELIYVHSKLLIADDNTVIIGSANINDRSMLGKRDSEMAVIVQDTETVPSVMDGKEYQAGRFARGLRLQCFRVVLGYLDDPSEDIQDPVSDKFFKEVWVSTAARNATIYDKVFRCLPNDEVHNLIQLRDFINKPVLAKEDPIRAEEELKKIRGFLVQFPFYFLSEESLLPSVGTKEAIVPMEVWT
Procedure, shortened: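 Fluorescence read-out couples choline to Amplex Red via choline oxidase and peroxidase after a 60 min room-temperature reaction. Enzyme: FLAG-tagged full-length human PLD1 from Expi293F cells, anti-FLAG purified; substrate diheptanoyl phosphatidylcholine; HEPES pH 7.5 assay buffer with 0.01% NP-40, 0.1% BSA, 5% DMSO final.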

[1] = full-length human PLD2 enzyme, read-out: PLD2 IC50
[2] = full-length human PLD1 enzyme, read-out: PLD1 IC50
[3] = read-out: human PLD2 % inhibition at 10 μM
[4] = read-out: inhibition rate of PLD2 at 10 μM compound
[5] = read-out: human PLD1 % inhibition at 10 μM
[6] = read-out: inhibition rate of PLD1 at 10 μM compound
[7] = column 2 of continuation tables 2-12 to 2-14, read-out: human PLD2 enzyme inhibitory activity IC50
[8] = column 1 of continuation tables 2-12 to 2-14, read-out: human PLD1 enzyme inhibitory activity IC50

Chain of full-length human PLD2 (O14939 whole entry): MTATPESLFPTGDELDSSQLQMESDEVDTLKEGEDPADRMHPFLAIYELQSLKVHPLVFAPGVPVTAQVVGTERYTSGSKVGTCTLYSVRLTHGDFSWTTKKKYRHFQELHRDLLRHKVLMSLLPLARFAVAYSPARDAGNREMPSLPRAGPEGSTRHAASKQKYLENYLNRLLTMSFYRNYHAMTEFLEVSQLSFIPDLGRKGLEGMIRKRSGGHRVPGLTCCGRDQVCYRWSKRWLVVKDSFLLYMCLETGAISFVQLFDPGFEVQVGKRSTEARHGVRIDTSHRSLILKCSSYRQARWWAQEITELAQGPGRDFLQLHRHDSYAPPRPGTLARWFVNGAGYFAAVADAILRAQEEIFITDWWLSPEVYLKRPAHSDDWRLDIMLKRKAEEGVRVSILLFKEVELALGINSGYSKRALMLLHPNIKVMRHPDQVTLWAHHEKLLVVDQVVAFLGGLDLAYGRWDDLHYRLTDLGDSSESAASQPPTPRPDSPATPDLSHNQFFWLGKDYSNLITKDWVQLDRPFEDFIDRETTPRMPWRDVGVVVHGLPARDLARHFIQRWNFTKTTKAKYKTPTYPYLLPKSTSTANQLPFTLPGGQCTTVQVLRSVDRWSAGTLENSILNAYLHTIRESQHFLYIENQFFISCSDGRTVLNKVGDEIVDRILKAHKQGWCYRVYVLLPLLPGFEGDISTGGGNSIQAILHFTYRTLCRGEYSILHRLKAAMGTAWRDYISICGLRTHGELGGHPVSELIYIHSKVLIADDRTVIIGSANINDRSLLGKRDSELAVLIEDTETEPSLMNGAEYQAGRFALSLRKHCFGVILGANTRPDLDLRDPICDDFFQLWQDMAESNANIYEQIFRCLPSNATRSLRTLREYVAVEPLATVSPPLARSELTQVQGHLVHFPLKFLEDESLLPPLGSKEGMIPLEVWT

Row | SMILES | IC50 (full-length human PLD2; [1]) | IC50 (full-length human PLD1; [2]) | also measured
1 | Cc1cc(C(=O)N[C@@H](C)CN2CC[C@]3(C[C@@H]2C)OC(=O)NN=C3c2ccc(C#N)cc2Cl)[nH]n1 [Example 281] | 232 nM | 169 nM | –
2 | C[C@@H](CN1CCC2(CC1)OC(=O)NN=C2c1ccc(F)cc1Br)NC(=O)C(=O)NC1CC1 [Example 180] | 12 nM | 28 nM | –
3 | C[C@@H](C[C@H]1CC[C@]2(CC1)OC(=O)NN=C2c1ccccc1OC(F)(F)F)NC(=O)c1cc(Cl)no1 [Example 111] | 21 nM | 17 nM | –
4 | C[C@@H](CN1CCC2(CC1)OC(=O)NN=C2c1ccc(C#N)cc1Br)NC(=O)c1cncn1C [Example 2-059] | 505 nM | 731 nM | –
5 | CNC(=O)C(=O)N[C@@H](C)CN1CCC2(CC1)OC(=O)NN=C2c1cc(C(=O)OC)ccc1Br [Example 2-033] | < 10 nM | 35 nM | –
6 | C[C@@H](C[C@H]1CC[C@]2(CC1)OC(=O)NN=C2c1ccc(F)cc1Br)NC(=O)c1cc2cc(F)ccc2[nH]1 [Example 13] | < 10 nM | 36 nM | –
7 | CNC(=O)C(=O)N[C@H](C)C[C@H]1CC[C@@]2(CC1)OC(=O)NN=C2c1cc(C#N)ccc1Br [Example 2-150] | – | – | inhibition at 10 µM (full-length human PLD2; [3]): 30%; inhibition at 10 µM (full-length human PLD2; [4]): 30%; inhibition at 10 µM (full-length human PLD1; [5]): 25%; inhibition at 10 µM (full-length human PLD1; [6]): 25%
8 | CNC(=O)C(=O)N[C@@H](C)CC1CCC2(CC1)OC(=O)NN=C2c1ccncc1Br (mixture of isomers) [Example 120] | 11 nM | 12 nM | –
9 | [2H]C([2H])([2H])NC(=O)C(=O)N[C@@H](C)C[C@]1(C#N)CC[C@@]2(CC1)OC(=O)NN=C2c1cc(OC(F)(F)F)ccc1Br [Example 2-132] | – | – | IC50 (full-length human PLD2; [7]): < 10 nM; IC50 (full-length human PLD1; [8]): 11 nM
10 | [2H]C([2H])([2H])NC(=O)C(=O)N[C@@H](C)C[C@]1(C#N)CC[C@@]2(CC1)OC(=O)NN=C2c1cc(OC(F)F)c(F)cc1Br [Example 2-138] | – | – | IC50 (full-length human PLD2; [7]): < 10 nM; IC50 (full-length human PLD1; [8]): 14 nM
11 | C[C@@H](C[C@H]1CC[C@]2(CC1)OC(=O)NN=C2c1ccc(F)cc1Br)NC(=O)C(=O)NC1CC1 [Example 203] | < 10 nM | 12 nM | –
12 | CNC(=O)C(=O)N[C@@H](C)C[C@H]1CC[C@]2(CC1)OC(=O)NN=C2c1cc(F)ccc1Br [Example 157] | < 10 nM | < 10 nM | –
13 | CNC(=O)C(=O)N[C@@H](C)C[C@]1(C#N)CC[C@@]2(CC1)OC(=O)NN=C2c1cc(C#N)ccc1Br [Example 2-040] | < 10 nM | 21 nM | –
14 | Cc1cc(C(=O)N[C@@H](C)C[C@H]2CC[C@]3(CC2)OC(=O)NN=C3c2ccc(C#N)cc2Br)[nH]n1 [Example 199] | < 10 nM | 10 nM | –
15 | C[C@@H](C[C@]1(C#N)CC[C@@]2(CC1)OC(=O)NN=C2c1cc(OCC(F)F)ncc1Br)NC(=O)C(=O)NC1CC1 [Example 2-101] | – | – | inhibition at 10 µM (full-length human PLD2; [3]): 28%; inhibition at 10 µM (full-length human PLD2; [4]): 28%; inhibition at 10 µM (full-length human PLD1; [5]): 13%; inhibition at 10 µM (full-length human PLD1; [6]): 13%
16 | C[C@@H](C[C@H]1CC[C@]2(CC1)OC(=O)NN=C2c1ccc(F)cc1Cl)NC(=O)c1cc2ccccc2o1 [Example 46] | < 10 nM | 12 nM | –
17 | Cc1cc(C(=O)N[C@@H](C)C[C@H]2CC[C@]3(CC2)OC(=O)NN=C3c2ccccc2Br)[nH]n1 [Example 27] | 13 nM | 14 nM | –
18 | Cc1cc(C(=O)N[C@@H](C)C[C@H]2CC[C@]3(CC2)OC(=O)NN=C3c2ccc(C#N)cc2C)[nH]n1 [Example 153] | 28 nM | 27 nM | –
19 | C[C@@H](CN1CCC2(CC1)OC(=O)NN=C2c1ccc(F)cc1Cl)NC(=O)c1cc(Cl)no1 [Example 92] | 13 nM | 26 nM | –
20 | CNC(=O)C(=O)N[C@@H](C)C[C@H]1CC[C@]2(CC1)OC(=O)NN=C2c1ccc(C)cc1C [Example 145] | < 10 nM | 17 nM | –
21 | [2H]C([2H])([2H])NC(=O)C(=O)N[C@@H](C)C[C@]1(C#N)CC[C@@]2(CC1)OC(=O)NN=C2c1cc(F)ccc1Br [Example 2-133] | – | – | IC50 (full-length human PLD2; [7]): < 10 nM; IC50 (full-length human PLD1; [8]): 14 nM
22 | CNC(=O)C(=O)N[C@@H](C)C[C@H]1CC[C@]2(CC1)OC(=O)NN=C2c1cc(Cl)ccc1I [Example 2-044] | < 10 nM | < 10 nM | –
23 | Cc1cc(C(=O)N[C@@H](C)C[C@H]2CC[C@]3(CC2)OC(=O)NN=C3c2cnc(N3CC4CCC(C3)O4)cc2C)[nH]n1 [Example 251] | < 10 nM | 17 nM | –
24 | C[C@@H](C[C@H]1CC[C@]2(CC1)OC(=O)NN=C2c1ccc(F)cc1I)NC(=O)NC1CC1 [Example 245] | 107 nM | 40 nM | –
25 | C[C@@H](C[C@H]1CC[C@]2(CC1)OC(=O)NN=C2c1ccccc1S(C)(=O)=O)NC(=O)c1cc(Cl)no1 [Example 78] | 252 nM | 350 nM | –

Row | SMILES | IC50 (full-length human PLD2; [1]) | IC50 (full-length human PLD1; [2]) | also measured
26 | C[C@@H](CN1CCC2(CC1)OC(=O)NN=C2c1ccc(C#N)cc1Br)NC(=O)c1cnn(C)c1 [Example 336] | < 10 nM | 33 nM | –
27 | CNC(=O)C(=O)N[C@@H](C)C[C@H]1CC[C@]2(CC1)OC(=O)NN=C2c1cc(OC)ncc1Br [Example 2-074] | < 10 nM | 11 nM | –
28 | CNC(=O)C(=O)N[C@@H](C)CN1CCC2(CC1)OC(=O)NN=C2c1ccc(Cl)cc1C [Example 216] | 19 nM | 29 nM | –
29 | Cc1cc(C(=O)N[C@@H](C)CC2CC[C@]3(C[C@@H]2F)OC(=O)NN=C3c2ccc(F)cc2Br)[nH]n1 (some centres unmarked) [Example 286] | < 10 nM | 14 nM | –
30 | Cc1ncccc1C1=NNC(=O)O[C@]12CC[C@@H](C[C@H](C)NC(=O)c1cc3ccccc3o1)CC2 [Example 104] | 217 nM | 75 nM | –
31 | CNC(=O)C(=O)N[C@@H](C)C[C@H]1CC[C@]2(CC1)OC(=O)NN=C2c1ccccc1Br [Example 26] | < 10 nM | < 10 nM | –
32 | CNC(=O)C(=O)N[C@@H](C)C[C@H]1CC[C@]2(CC1)OC(=O)NN=C2c1ccccc1SC [Example 74] | < 10 nM | < 10 nM | –
33 | CC(=O)NCC(=O)N[C@@H](C)C[C@H]1CC[C@]2(CC1)OC(=O)NN=C2c1ccc(F)cc1Br [Example 213] | 115 nM | 86 nM | –
34 | C[C@@H](C[C@H]1CC[C@]2(CC1)OC(=O)NN=C2c1ccc(F)cc1Br)NC(=O)C(F)F [Example 211] | 429 nM | 102 nM | –
35 | C[C@@H](CN1CCC2(CC1)OC(=O)NN=C2c1ccc(F)cc1Br)NC(=O)C(=O)NC12CC(C1)C2 [Example 202] | 1250 nM | 832 nM | –
36 | C[C@@H](C[C@H]1CC[C@]2(CC1)OC(=O)NN=C2c1ccc(F)cc1Cl)NC(=O)c1cc(Cl)no1 [Example 63] | < 10 nM | < 10 nM | –
37 | CNC(=O)C(=O)N[C@@H](C)C[C@]1(C#N)CC[C@@]2(CC1)OC(=O)NN=C2c1cc(C(F)(F)F)ccc1Br [Example 2-066] | < 10 nM | 15 nM | –
38 | C[C@@H](CN1CCC2(CC1)OC(=O)NN=C2c1cc(C#N)ccc1Cl)NC(=O)[C@H](O)C(F)(F)F [Example 2-009] | 1040 nM | 2150 nM | –
39 | CNC(=O)C(=O)N[C@@H](C)[C@H](C)N1CCC2(CC1)OC(=O)NN=C2c1ccc(F)cc1Br [Example 289] | < 10 nM | 18 nM | –
40 | CNC(=O)C(=O)N[C@@H](C)C[C@H]1CC[C@]2(CC1)OC(=O)NN=C2c1ccccc1SC(F)(F)F [Example 2-019] | < 10 nM | 12 nM | –
41 | Cc1cc(C(=O)N[C@@H](C)C[C@H]2CC[C@]3(CC2)OC(=O)NN=C3c2cnc(N3CCC(F)(F)C3)cc2Cl)[nH]n1 [Example 224] | < 10 nM | 13 nM | –
42 | Cc1cc(C(=O)N[C@@H](C)CN2CCC3(CC2)OC(=O)NN=C3c2cccc(C(F)(F)F)c2Br)[nH]n1 [Example 2-052] | < 10 nM | 21 nM | –
43 | CNC(=O)C(=O)N[C@@H](C)C[C@H]1CC[C@]2(CC1)OC(=O)NN=C2c1cc(C#N)ccc1C [Example 287] | < 10 nM | 13 nM | –
44 | CNC(=O)/C=C/C(=O)N[C@@H](C)CN1CCC2(CC1)OC(=O)NN=C2c1cc(C#N)ccc1Br [Example 2-041] | 103 nM | 148 nM | –
45 | Cc1cc(C(=O)N[C@@H](C)C[C@]2(O)CC[C@@]3(CC2)OC(=O)NN=C3c2ccc(F)cc2Br)[nH]n1 [Example 322, N—((S)-1-(trans-5-(2-bromo-4-fluorophenyl)-9-hydroxy-2-oxo-1-oxa-3,4-diazaspiro[5,5]undec-4-en-9-yl)propan-2-yl)-3-methyl-1H-pyrazole-5-carboxamide] | < 10 nM | 30 nM | –
46 | C[C@@H](CN1CCC2(CC1)OC(=O)NN=C2c1ccc(C#N)cc1Br)NC(=O)c1cc(Cl)no1 [Example 2-061] | < 10 nM | 14 nM | –
47 | C[C@@H](C[C@]1(C#N)CC[C@@]2(CC1)OC(=O)NN=C2c1cc(C(F)(F)F)ccc1Br)NC(=O)c1cn(C)cn1 [Example 2-079] | 10 nM | 11 nM | –
48 | CNC(=O)C(=O)N[C@@H](C)C[C@]1(O)CC[C@@]2(CC1)OC(=O)NN=C2c1ccc(F)cc1Br [Example 321] | < 10 nM | 42 nM | –
49 | CNC(=O)C(=O)N[C@@H](C)C[C@H]1CC[C@]2(CC1)OC(=O)NN=C2c1cccc(C)c1C [Example 129] | < 10 nM | 18 nM | –
50 | C[C@@H](CN1CCC2(CC1)OC(=O)NN=C2c1ccc(F)cc1Cl)NC(=O)c1ncn[nH]1 [Example 95] | 6160 nM | 8060 nM | –
